Data on five compounds can be found in patent US20200061062A1, “INHIBITORS OF HUMAN PHOSPHATIDYLINOSITOL 3-KINASE DELTA” (ICOS Corporation, priority 2000, published 2020).

The test system of data set [1] is Murine splenocytes (Balb/c). In words: B cell proliferation in response to cell surface IgM stimulation. In kind it is cell-based. The settings on record: Mus musculus, Splenocyte; stimulated B cell proliferation; read-out: Mouse BCR Stim (EC50). An outline of the steps:
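Balb/c splenocytes (2×10^5/well, 10% FBS/RPMI) preincubated 30-60 min with inhibitor, then stimulated with goat F(ab′)2 anti-mouse IgM μ-chain at 25 μg/mL final. Cultured 3 days at 37° C., [^3H]-thymidine pulsed for final 4 h; incorporation counted as CPM. Values are EC50 (μM).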

In data set [2] the target is T1, PI3Kβ (Homo sapiens, UniProt P42338).
T1 construct: His tag (pFastbac HTa vector) (N); FLAG (N); made in house; host or cells: Sf21 insect cells (baculovirus)
T1 sequence (P42338 whole entry): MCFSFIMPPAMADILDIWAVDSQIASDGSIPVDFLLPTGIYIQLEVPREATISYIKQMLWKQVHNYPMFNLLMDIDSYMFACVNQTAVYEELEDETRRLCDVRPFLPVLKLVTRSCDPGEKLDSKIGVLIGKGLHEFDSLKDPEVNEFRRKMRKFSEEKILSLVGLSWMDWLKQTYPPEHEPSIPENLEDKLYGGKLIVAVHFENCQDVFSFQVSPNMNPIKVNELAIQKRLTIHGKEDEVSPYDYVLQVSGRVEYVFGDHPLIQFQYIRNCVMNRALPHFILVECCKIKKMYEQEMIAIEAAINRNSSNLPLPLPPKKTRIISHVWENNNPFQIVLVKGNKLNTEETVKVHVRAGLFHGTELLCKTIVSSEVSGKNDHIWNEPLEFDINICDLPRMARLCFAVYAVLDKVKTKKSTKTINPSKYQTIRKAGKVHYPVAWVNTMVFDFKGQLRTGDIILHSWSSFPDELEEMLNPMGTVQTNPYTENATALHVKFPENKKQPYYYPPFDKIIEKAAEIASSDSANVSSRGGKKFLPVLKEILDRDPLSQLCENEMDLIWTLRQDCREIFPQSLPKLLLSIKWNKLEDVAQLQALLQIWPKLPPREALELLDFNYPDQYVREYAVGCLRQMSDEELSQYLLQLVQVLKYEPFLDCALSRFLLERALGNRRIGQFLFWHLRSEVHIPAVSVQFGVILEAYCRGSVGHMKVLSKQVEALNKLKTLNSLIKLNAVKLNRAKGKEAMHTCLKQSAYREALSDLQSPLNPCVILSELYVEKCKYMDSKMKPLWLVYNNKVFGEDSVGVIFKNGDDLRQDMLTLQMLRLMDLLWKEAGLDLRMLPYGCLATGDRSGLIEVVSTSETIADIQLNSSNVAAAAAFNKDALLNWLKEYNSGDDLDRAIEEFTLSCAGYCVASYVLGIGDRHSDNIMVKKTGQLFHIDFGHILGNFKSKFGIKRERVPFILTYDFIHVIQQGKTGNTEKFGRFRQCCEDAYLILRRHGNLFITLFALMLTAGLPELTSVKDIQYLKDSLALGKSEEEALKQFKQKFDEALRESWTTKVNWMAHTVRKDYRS
T1 sequence (P27986 whole entry partner): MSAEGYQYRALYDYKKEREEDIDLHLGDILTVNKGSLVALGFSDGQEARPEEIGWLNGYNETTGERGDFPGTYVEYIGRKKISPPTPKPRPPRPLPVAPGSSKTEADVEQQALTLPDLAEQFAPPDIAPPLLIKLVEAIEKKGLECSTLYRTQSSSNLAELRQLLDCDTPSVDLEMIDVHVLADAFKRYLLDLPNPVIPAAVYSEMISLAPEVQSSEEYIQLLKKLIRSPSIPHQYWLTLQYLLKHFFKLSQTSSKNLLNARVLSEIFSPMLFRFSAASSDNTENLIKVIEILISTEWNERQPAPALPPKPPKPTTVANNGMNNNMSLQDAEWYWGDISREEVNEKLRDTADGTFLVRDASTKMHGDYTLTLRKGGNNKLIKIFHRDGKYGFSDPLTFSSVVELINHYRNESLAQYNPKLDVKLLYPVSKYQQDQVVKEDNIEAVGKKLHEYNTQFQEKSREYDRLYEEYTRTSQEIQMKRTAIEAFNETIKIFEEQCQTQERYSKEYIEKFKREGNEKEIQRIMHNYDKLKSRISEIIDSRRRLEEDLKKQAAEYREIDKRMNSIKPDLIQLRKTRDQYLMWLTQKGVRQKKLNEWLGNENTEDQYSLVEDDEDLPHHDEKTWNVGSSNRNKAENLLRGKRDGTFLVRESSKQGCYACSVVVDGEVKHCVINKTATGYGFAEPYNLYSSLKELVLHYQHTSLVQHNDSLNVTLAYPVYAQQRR
Put plainly: Biochemical assay using 200 μM ATP, Beta.
Method: PI3Kδ catalyzes a phosphotransfer from γ-[^32P]ATP to PIP2/PS liposomes at the D3′ position of the PIP2 lipid inositol ring. This reaction is MgCl2 dependent and is quenched in high molarity potassium phosphate buffer pH 8.0 containing 30 mM EDTA. […] The reaction products (and all unlabelled products) are transferred to a 96-well, prewetted PVDF filter plate, filtered, and washed in high molarity potassium phosphate. Scintillant is added to the dried wells and the incorporated radioactivity is quantitated.
This dilution established a final concentration of 200 μM ATP in the reaction volume. The reaction was stopped with 150 μL quench buffer (1.0 M potassium phosphate pH 8.0, 30 mM EDTA). A portion of the quenched solution (180 μL) was then transferred to a PVDF filter plate (Millipore # MAIP NOB prewetted with sequential 200 μL washes of 100% methanol, water, and finally 1.0 M potassium phosphate pH 8.0 wash buffer).
The PVDF filter plate was aspirated under moderate vacuum (2-5 mm Hg), washed with 5×200 μL of wash buffer, and then dried by aspiration. The filter was subsequently blotted, allowed to air dry completely, and inserted into a Wallac counting cassette with 50 μL of Ecoscint scintillation cocktail added per well.
Subsequent selectivity assays were done similarly using the same 3× substrate stocks except they contained 0.05 mCi/mL γ[^32P]ATP and 3 mM PIP2. Subsequent selectivity assays also used the same 3× enzyme stocks, except they now contained 3 nM of any given PI3K isoform.
For all selectivity assays, the test compounds were weighed out and dissolved into 10-50 mM stocks in 100% DMSO (depending on their respective solubilities) and stored at −20° C. […] From these dilutions, 20 μL was added into the assay wells alongside water blanks used for the enzyme (positive) control and the no enzyme (background) control.
This selectivity protocol is identical to that described above, except the 3× stock ATP concentration was 600 μM.

Data set [3] relates to human neutrophils. Put plainly: fMLP-induced human neutrophil migration. The note with it: neutrophil (PMN) migration, read-out: Human PMN Migration (EC50). In kind it is cell-based. The method, then:
Neutrophils have the intrinsic capacity to migrate through tissues, and are one of the first cell types to arrive at the sites of inflammation or tissue injury. The effect of D-000 on neutrophil migration towards a concentration gradient of fMLP was measured. The day before the migration assays were performed, 6-well plates were coated with recombinant ICAM-1/Fc fusion protein (Van der Vieren et al., Immunity, 3:683-690 (1995)) (25 μg/mL in bicarbonate buffer, pH 9.3) and left overnight at 4° C. After washing, 1% agarose solution, in RPMI-1640 with 0.5% bovine serum albumin (BSA), was added to wells with or without an inhibitor, and plates were placed into a refrigerator before punching holes in the gelled agarose to create plaques (1 central hole surrounded by 6 peripheral ones per well).
Human neutrophils were obtained as described above, and resuspended in RPMI medium supplemented with 0.5% BSA at 5×10^6 cells/mL. After combining equal volumes of neutrophil suspension and medium (either with DMSO or a serial dilution of the test compound in DMSO), neutrophils were aliquoted into the peripheral holes, while the central hole received fMLP (5 μM). Plates were incubated at 37° C. in the presence of 5% CO2 for 4 hr, followed by termination of migration by the addition of 1% glutaraldehyde solution in D-PBS. After removing the agarose layer, wells were washed with distilled water and dried.
Analysis of neutrophil migration was conducted on a Nikon DIAPHOT® inverted microscope (1× objective) video workstation using the NIH 1.61 program. Using Microsoft Excel and Table Curve 4 (SSPS Inc., Chicago Ill.) programs, a migration index was obtained for each of the studied conditions. Migration index was defined as the area under a curve representing number of migrated neutrophils versus the net distance of migration per cell.
Using the methods described in Examples 3-5, above, compounds of the invention were tested for inhibitory activity and potency in assays of stimulated B and T cell proliferation, neutrophil (PMN) migration, and neutrophil (PMN) elastase release. In Table 4, the values shown are effective concentrations of the compound (EC50; μM). Where no value is given, no assay was performed.

The target in data set [4] is T2, PI3Kδ (Homo sapiens, UniProt O00329, S253N). In words: Biochemical assay of PI3K potency and selectivity using 20 μM ATP, Delta. Further details: His tag (pFastbac HTb vector) (N); FLAG; made in house; host or cells: Sf21 insect cells (baculovirus). An outline of the steps: (§1)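 Lipid-kinase radiometric assay with γ-[32P]ATP (20 μM ATP) on PIP2/PS liposomes in 20 mM HEPES pH 7.4; the 3× substrate mix held […] and 6 μM liposomes.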
T2 sequence (O00329 whole entry S253N): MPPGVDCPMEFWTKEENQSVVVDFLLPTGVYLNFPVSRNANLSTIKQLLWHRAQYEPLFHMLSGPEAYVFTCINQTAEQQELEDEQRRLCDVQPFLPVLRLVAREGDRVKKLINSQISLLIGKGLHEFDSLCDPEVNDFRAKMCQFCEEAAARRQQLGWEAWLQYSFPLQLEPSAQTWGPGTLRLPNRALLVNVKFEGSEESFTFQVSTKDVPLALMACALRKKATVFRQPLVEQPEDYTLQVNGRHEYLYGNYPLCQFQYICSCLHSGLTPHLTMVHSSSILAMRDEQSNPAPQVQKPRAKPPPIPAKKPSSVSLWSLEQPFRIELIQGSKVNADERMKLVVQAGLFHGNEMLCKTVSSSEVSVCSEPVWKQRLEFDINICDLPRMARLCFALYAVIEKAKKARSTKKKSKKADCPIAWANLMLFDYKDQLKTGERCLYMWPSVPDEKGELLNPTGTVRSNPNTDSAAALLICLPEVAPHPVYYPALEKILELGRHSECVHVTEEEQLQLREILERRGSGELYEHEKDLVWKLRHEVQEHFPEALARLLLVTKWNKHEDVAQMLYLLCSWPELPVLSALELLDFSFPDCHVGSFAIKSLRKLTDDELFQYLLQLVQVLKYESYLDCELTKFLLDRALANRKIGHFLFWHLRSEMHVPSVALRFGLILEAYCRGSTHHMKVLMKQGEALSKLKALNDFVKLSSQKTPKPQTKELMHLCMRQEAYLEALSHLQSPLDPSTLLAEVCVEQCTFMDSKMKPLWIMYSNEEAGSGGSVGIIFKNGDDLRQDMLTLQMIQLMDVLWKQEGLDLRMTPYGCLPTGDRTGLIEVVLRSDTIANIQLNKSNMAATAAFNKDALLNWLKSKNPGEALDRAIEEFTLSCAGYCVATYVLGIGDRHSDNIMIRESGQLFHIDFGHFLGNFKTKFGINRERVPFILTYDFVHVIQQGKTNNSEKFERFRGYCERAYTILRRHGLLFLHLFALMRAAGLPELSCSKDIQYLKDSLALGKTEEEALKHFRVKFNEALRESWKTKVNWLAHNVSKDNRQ
T2 sequence (P27986 whole entry partner): as the sequence (P27986 whole entry partner) above

The next data set deals with T cell proliferation. Put plainly: Stimulated T cell proliferation (Mouse TCE Stim, Table 4). It is filed as cell-based. The settings on record: read-out: Mouse TCE Stim (EC50).
In data set [5] the target is T3, PI3Kγ (Homo sapiens, UniProt P48736).
T3 construct: His tag (pFastbac HTb vector) (N); FLAG (N); made in house; host or cells: Sf21 insect cells (baculovirus)
T3 sequence (P48736 whole entry): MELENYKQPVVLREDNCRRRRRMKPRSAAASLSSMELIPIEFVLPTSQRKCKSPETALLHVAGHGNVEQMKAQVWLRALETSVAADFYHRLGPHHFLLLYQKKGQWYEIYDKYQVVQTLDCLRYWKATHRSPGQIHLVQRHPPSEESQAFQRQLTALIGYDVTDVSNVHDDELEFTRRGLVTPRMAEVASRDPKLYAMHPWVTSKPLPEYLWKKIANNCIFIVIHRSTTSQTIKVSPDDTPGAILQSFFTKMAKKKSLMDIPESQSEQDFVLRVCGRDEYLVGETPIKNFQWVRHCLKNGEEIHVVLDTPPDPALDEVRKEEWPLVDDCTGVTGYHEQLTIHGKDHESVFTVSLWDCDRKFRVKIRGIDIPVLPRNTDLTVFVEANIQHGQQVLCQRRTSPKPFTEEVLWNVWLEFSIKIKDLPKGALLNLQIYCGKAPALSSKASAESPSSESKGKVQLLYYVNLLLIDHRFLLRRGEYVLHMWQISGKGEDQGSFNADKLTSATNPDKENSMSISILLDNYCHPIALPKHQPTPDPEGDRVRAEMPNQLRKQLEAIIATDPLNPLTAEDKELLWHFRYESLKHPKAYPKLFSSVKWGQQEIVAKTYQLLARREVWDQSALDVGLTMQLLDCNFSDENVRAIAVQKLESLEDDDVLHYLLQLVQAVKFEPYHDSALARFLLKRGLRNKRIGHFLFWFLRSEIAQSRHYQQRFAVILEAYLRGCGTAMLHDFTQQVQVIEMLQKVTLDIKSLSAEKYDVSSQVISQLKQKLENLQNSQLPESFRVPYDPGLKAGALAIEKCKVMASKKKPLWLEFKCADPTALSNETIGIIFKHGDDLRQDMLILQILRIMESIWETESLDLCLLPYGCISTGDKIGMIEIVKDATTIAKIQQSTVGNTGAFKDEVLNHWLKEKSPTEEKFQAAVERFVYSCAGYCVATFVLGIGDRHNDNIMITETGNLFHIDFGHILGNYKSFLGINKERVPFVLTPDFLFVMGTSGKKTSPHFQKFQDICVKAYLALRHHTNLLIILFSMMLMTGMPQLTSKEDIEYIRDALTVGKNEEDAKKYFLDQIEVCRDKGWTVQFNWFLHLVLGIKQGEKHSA
Put plainly: Biochemical assay using 200 μM ATP, Gamma.

The target in data set [6] is T4, PI3Kα (Homo sapiens, UniProt P42336).
T4 construct: His tag (pFastbac HTb vector) (N); FLAG; made in house; host or cells: Sf21 insect cells (baculovirus)
T4 sequence (P42336 whole entry): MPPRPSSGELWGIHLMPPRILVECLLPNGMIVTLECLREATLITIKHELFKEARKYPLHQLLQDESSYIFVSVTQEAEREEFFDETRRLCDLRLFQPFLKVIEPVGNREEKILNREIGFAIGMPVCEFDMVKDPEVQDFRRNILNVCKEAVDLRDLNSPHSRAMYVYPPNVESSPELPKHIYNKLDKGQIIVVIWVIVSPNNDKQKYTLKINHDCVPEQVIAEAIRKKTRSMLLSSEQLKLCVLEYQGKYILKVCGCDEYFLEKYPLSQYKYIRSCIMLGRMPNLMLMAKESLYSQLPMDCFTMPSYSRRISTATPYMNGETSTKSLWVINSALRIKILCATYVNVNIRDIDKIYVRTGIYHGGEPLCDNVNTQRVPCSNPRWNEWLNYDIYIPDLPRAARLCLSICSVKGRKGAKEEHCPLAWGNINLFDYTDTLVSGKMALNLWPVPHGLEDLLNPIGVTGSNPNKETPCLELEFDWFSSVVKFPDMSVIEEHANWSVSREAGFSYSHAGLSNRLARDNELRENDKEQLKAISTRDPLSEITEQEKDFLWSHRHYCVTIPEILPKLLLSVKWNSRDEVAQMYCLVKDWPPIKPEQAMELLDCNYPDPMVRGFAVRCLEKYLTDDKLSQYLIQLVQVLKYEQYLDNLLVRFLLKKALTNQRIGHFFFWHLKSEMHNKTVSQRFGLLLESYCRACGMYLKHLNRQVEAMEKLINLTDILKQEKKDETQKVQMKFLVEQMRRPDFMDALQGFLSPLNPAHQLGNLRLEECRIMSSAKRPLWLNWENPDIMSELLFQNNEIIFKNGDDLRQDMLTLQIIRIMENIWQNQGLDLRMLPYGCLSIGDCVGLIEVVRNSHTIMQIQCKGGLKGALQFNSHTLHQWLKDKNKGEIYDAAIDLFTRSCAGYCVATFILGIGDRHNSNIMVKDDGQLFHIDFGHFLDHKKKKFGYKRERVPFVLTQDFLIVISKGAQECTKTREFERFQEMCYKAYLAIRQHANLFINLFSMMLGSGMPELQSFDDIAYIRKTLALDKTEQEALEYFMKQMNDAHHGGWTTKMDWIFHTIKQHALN
T4 sequence (P27986 whole entry partner): as the sequence (P27986 whole entry partner) above
In words: Biochemical assay using 200 μM ATP, Alpha.

Data set [7] deals with T2, PI3Kδ. In words: Biochemical assay using 200 μM ATP, Delta.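 Also: radiometric filter-binding assay: PI3Kδ transfers ³²P from γ-[³²P]ATP onto PIP2/PS liposomes, counted by scintillation, enzyme-only wells as positive control, no-enzyme wells as background.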
For data set [8], the target named is T1, PI3Kβ. Put plainly: Biochemical assay of PI3K potency and selectivity using 20 μM ATP, Beta. The settings on record: 20 μM ATP. The essentials:
as §1

Data set [9] concerns human neutrophils. Put plainly: Elastase exocytosis from neutrophils (fMLP-induced). The settings on record: neutrophil (PMN) elastase release. In kind it is cell-based. An outline of the steps: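 Human blood neutrophils (Ficoll-Hypaque) treated with compound or DMSO, then stimulated 90 min at 37 °C with 1 μM fMLP plus 0.01 mg/mL cytochalasin B, 1.0 μM NaN3 and 5 μg/mL L-methionine. Supernatant elastase read at 410 nm over 2 h on MeO-suc-AAPV-pNA, normalized to uninhibited; EC50 in μM.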

Data set [10] deals with T4, PI3Kα. Put plainly: Biochemical assay of PI3K potency and selectivity using 20 μM ATP, Alpha. The settings on record: 20 μM ATP. An outline of the steps: as §1
Another data set concerns basophils. Put plainly: Basophil histamine release assay. It is filed as cell-based, human. The method, then:
Assessment of the effect of a compound of the invention on basophil function was tested using a conventional histamine release assay, generally in accordance with the method described in Miura et al., J Immunol, 162:4198-206 (1999). Briefly, enriched basophils were preincubated with test compounds at several concentrations from 0.1 nM to 1,000 nM, for 10 min at 37° C. Then, polyclonal goat antihuman IgE (0.1 μg/mL) or fMLP was added, and allowed to incubate for an additional 30 min. Histamine released into the supernatant was measured using an automated fluorometric technique. Two compounds were tested, shown below.

A further data set concerns osteoclasts. Put plainly: Osteoclast function, pit depths on dentine slices. It is filed as cell-based, mouse. The note with it: inhibitor 100 nM + osteopontin (OPN) 25 μg/mL, 72 hr; two experiments; OPN alone 10 ± 0.5 and 9 ± 0.4. How it is done: To analyze the effect of the PI3Kδ inhibitor D-000 on osteoclasts, mouse bone marrow cells were isolated and differentiated them to osteoclasts by treating the cells with Macrophage Colony Stimulating Factor^−1 (mCSF^−1) and Osteoprotegerin Ligand (OPGL) in serum-containing medium (αMEM with 10% heat-inactivated FBS; Sigma) for 3 days. On day four, when the osteoclasts had developed, the medium was removed and cells were harvested. The osteoclasts were plated on dentine slices at 10^5 cells/well in growth medium, i.e., αMEM containing 1% serum and 2% BSA with […] and 10 ng/mL mCSF-1. After 3 hr, the medium was changed to 1% serum and 1% BSA, with or without osteopontin (25 μg/mL) and the PI3K inhibitors (100 nM). The medium was changed every 24 hours with fresh osteopontin and the inhibitors. At 72 hr, the medium was removed, and the dentine surfaces were washed with water to remove cell debris and stained with acid hematoxylin. Excess stain was washed and the pit depths were quantitated using confocal microscopy.

The next data set concerns rats. Put plainly: Six-day air pouch model, TNF challenge, leukocyte counts and neutrophil elastase in lavage fluid. It is filed as in vivo, rat. The note with it: 100 mg/kg orally, TNF 2.5 ng. The method, then:
The six-day air pouch model is an in vivo inflammation model that histologically resembles a joint synovium. A lining of organized mononuclear cells and fibroblasts develops that closely resembles a synovial cavity. The model represents an “acute” model of a chronic disease (e.g., rheumatoid arthritis). This model allows for the in vivo evaluation of agents to block cellular influx into the air pouch under the influence of an inflammatory stimulus.
(§2) The test was performed as follows: on day zero, groups of rats were shaved and 10 ml of air was injected subcutaneously on the back of each, forming a pouch. On day three, 10 ml of air was reinjected. […] Six hours following dosing, the air pouches of both groups received 2.5 ng of TNF. Twelve hours following dosing, the pouches were washed with saline, and the resulting lavage fluid was analyzed for leukocyte counts and neutrophil elastase activity. In addition, blood was drawn to determine the levels of D-030 in circulation. […] Reductions in specific leukocyte counts were as follows: neutrophils (90%), eosinophils (66%), and lymphocytes (70%).

The test system of a further data set is mouse. Put plainly: Mouse air pouch, TNF-α challenge, elastase exocytosis in lavage. The settings on record: 32 mg/kg in LABRAFIL one hour before and two hours after TNF-α, FIG. 9. It is filed as in vivo.
A short description of data set [11]: Levels of D-030 in circulation (air pouch test). In kind it is in vivo. The settings on record: rat, blood, po; rats, 100 mg/kg in PEG 400 orally, twelve hours following dosing; read-out: Average compound in circulation. The method, then: as §2
In data set [12] the target is T3, PI3Kγ. In words: Biochemical assay of PI3K potency and selectivity using 20 μM ATP, Gamma.
Where [13] appears, read: 20 μM ATP, read-out: Delta IC50.
Where [14] appears, read: stimulated T cell proliferation.
Where [15] appears, read: ratio of IC50 values, > = hypothetical ratio with 100 μM substituted for the missing IC50.

Where “and” joins values, the source holds several entries; their conditions need not be identical. Identical values can stand only once. Like-named read-outs stand apart in the source and are kept apart here.

The melting point is the temperature, or range, at which the solid turns liquid. `Cc1cccc2nc(Cn3cnc4c(N)ncnc43)n(-c3ccccc3C(C)C)c(=O)c12` [Compound D-029, 2-(6-Aminopurin-9-ylmethyl)-3-(2-isopropylphenyl)-5-methyl-3H-quinazolin-4-one] came in with a melting point of 258 to 258.2 °C. The EC50 in [1] came out at 100 ± 30 nM. On PI3Kβ [2], the “Beta/Delta Ratio” value is 101 and the IC50 turned out to be 34000 ± 4000 nM. Also, the EC50 with human neutrophils [3] amounted to 300 nM. The IC50 on PI3Kδ [4] (setting [13]) is 60 nM. The EC50 in the data set with T cell proliferation (setting [14]) was determined as 3400 ± 2000 nM. In addition, on PI3Kγ [5], the “Gamma/Delta Ratio” value is given as 37 and the IC50 was determined as 13000 ± 700 nM. The “Alpha/Delta Ratio” value at PI3Kα [6] is given as 653. Besides, the IC50 against PI3Kδ [7] turned out to be 340 ± 80 nM. Moreover, the “Beta/Delta Ratio” value on PI3Kβ [8] (setting [15]) amounted to 54. In addition, the IC50 on PI3Kβ [8] (read-out: Beta IC50) is 3000 nM. The same compound came in with an EC50 with human neutrophils [9] of 500 ± 600 nM. On PI3Kα [10] (setting [15]), the “Alpha/Delta Ratio” value stood at 882. Moreover, the IC50 on PI3Kα [10] (read-out: Alpha IC50) turned out to be 49000 nM.

In general, inhibition refers to the drop in the measured response relative to a control, in per cent. A higher inhibition goes with a strong effect. Turning to `O=c1cc(N2CCOCC2)oc2c(-c3ccccc3)cccc12` [LY294002, reference compound], the EC50 in [1] was found to be 900 ± 500 nM. In the data set with basophils (Homo sapiens, at the highest concentration, 10,000 nM), this compound had an inhibition at 10 µM of about 100%. The IC50 is 230 nM on PI3Kδ [4] (setting [13]); 300 to 1000 nM at PI3Kδ [4] (Example 2 assay conditions, read-out: IC50, δ isoform of PI3K (FIG. 1)); 2100 ± 1500 nM at PI3Kδ [7]. Further, the “Pit depths (osteoclast activity), Table 1” value with osteoclasts is 4.6 ± 0.22 and 5.8 ± 0.5.

As to `Cc1ccccc1-n1c(Cn2cnc3c(N)ncnc32)nc2cccc(C)c2c1=O` [Compound D-030, 2-(6-Aminopurin-9-ylmethyl)-5-methyl-3-o-tolyl-3H-quinazolin-4-one], in [1], the EC50 is 100 ± 100 nM. Also, in the data set with human neutrophils [3], the EC50 was found to be 200 nM. In addition, the EC50 with T cell proliferation (setting [14]) stood at 6000 nM. Besides, in the data set with rats, the “Reduction in eosinophils count in lavage fluid” value came to 66%, the “Reduction in lymphocytes count in lavage fluid” value is on record as 70%, the “Reduction in neutrophils count in lavage fluid” value is 90% and the “Reduction in total leukocytes in the lavage fluid compared to vehicle controls” value worked out at 82%. In the data set on rats, the “Reduction of neutrophil elastase levels versus vehicle controls” value was 15%. The “Elastase activity in the air pouch lavages of TNF challenged animals” value with mouse was “significant decrease”. Moreover, the EC50 in the data set with human neutrophils [9] came out at 400 ± 500 nM. In data set [11], the concentration at 12 h was 8.7 µM.

Consider `Cc1cccc2nc(CSc3ncnc4[nH]cnc34)n(-c3ccccc3Cl)c(=O)c12` [Compound D-026, 3-(2-Chlorophenyl)-5-methyl-2-(9H-purin-6-ylsulfanylmethyl)-3H-quinazolin-4-one], for which the melting point is 227.8 to 230.1 °C (dec.). Besides, the EC50 in data set [1] was determined as 300 ± 100 nM. Besides, the EC50 in the data set on human neutrophils [3] came to 300 ± 300 nM. The EC50 in the data set with basophils (Homo sapiens, read-out: EC50, suppression of histamine release) was about 25 nM. The “Suppression of histamine release” value in the data set with basophils (anti-IgE, at 1,000 nM) is given as about 100%. In addition, the “Effect on histamine release, basophils stimulated with fMLP” value in the data set with basophils (fMLP stimulus) is given as “Neither compound elicited any effect”. For the same compound, the IC50 on PI3Kδ [4] (setting [13]) came out at 80 nM. The EC50 with T cell proliferation (T-cell) was 3500 nM. Moreover, the IC50 on PI3Kγ [5] was found to be 13000 ± 10000 nM. This compound also had an IC50 on PI3Kδ [7] of 380 ± 200 nM. The compound further showed an EC50 in the data set on human neutrophils [9] of 200 ± 200 nM. Besides, the IC50 against PI3Kγ [12] came out at 1700 nM.

For `COC[C@H]1OC(=O)c2coc3c2[C@@]1(C)C1=C(C3=O)[C@@H]2CCC(=O)[C@@]2(C)C[C@H]1OC(C)=O` [Wortmannin, wortmannin], the “Pit depths (osteoclast activity), Table 1” value in the data set on osteoclasts was 5.7 ± 0.6 and 5 ± 0.5.
